Here are results for 32 compounds from patent publication USRE49128E1, “Hydroxyl purine compounds and applications thereof” (GUANGDONG RAYNOVENT BIOTECH CO., LTD., priority 2014, dated 2022).

T1 sequence (O00408 whole entry, species assumed): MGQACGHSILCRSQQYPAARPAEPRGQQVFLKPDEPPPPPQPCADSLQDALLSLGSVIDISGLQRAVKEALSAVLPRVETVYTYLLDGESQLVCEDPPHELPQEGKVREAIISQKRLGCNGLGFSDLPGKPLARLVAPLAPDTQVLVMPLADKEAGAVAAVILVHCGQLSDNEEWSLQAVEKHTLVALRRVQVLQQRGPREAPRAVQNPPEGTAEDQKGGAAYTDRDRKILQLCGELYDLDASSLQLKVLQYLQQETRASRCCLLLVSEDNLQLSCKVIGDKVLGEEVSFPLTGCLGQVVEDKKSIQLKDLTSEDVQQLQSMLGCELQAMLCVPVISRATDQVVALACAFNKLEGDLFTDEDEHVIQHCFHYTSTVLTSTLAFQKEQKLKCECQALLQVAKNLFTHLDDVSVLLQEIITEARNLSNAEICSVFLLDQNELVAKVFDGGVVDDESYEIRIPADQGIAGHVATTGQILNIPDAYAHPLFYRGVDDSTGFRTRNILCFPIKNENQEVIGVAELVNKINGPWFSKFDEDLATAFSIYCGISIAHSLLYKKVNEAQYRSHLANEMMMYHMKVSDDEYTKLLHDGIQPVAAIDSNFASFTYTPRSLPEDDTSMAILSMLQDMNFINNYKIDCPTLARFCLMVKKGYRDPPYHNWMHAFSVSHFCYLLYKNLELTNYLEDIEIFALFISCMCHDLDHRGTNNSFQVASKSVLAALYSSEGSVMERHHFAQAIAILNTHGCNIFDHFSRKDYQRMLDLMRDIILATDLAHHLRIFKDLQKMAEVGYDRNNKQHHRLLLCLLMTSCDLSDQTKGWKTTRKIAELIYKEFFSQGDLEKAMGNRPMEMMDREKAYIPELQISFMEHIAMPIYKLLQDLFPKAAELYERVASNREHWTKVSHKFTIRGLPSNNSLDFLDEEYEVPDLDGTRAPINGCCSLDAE

One data set has as its target T1, recombinant full-length PDE2A protein (Homo sapiens, UniProt O00408).
T1 construct: Expression of recombinant full-length PDE2A protein in insect Sf9 cells; GST (N); made in house; host or cells: insect Sf9 cells (baculovirus)
Put plainly: Evaluation of PDE2 phosphodiesterase inhibitory activity in vitro (fluorescence polarization, Transcreener AMP2/GMP2). As to conditions: IC50 classes; substrate 1 μM cGMP; room temperature one hour. Format: biochemical. The procedure: Experimental objective: The substituted Alexa Fluor 633 fluorescent dye on the AMP/GMP antibodies was detected by the fluorescence polarization analysis to determine the concentration of AMP/GMP produced in the reaction system, which was used to calculate the IC50 values of the test compounds against PDE2 phosphodiesterase.
The measured buffer solution: 10 mM Tris-HCl, pH 7.5, 5 mM MgCl2, 0.01% Brij 35, 1 mM DTT, and 1% DMSO.
Enzyme: Expression of recombinant full-length PDE2A protein in insect Sf9 cells using N-terminal GST-tag with baculovirus.
Transcreener® AMP^2/GMP^2 antibody, AMP2/GMP2 AlexaFluor 633 fluorescent dye.
The enzyme solution was prepared using freshly prepared buffer solution, and then added to the reaction holes, the DMSO solutions of the test compounds were added by the Echo550 non-contact nanoliter acoustic pipetting system, and then pre-incubated at room temperature for 10 minutes, the reaction was initiated by the addition of the substrate (1 μM cGMP), and then reacted at room temperature for one hour. And then the detection system (Transcreener® AMP^2/GMP^2 antibody, AMP2/GMP2 AlexaFluor 633 fluorescent dye) was added, reacted at room temperature for 90 minutes, the fluorescence polarization was detected using Ex/Em 620/688.
The fluorescence polarization intensity was converted to nM concentration by AMP/GMP standard curve, The relative enzyme activity relative to DMSO blank was calculated, IC50 values and curves were calculated using Prism software packages (GraphPad Software, San Diego Calif., USA).
As to “3,7-Dimethyl-1-[[3-[2,2,2-trifluoro-1-hydroxy-1-(trifluoromethyl)ethyl]cyclobutyl]methyl]purine-2,6-dione [Embodiment 8 isomer 1]”, the IC50 was 1 to 10 µM.

In the case of “3,7-Dimethyl-1-[[3-[2,2,2-trifluoro-1-hydroxy-1-(trifluoromethyl)ethyl]cyclobutyl]methyl]purine-2,6-dione [Embodiment 8 isomer 2]”, the IC50 lay in the range of 10 to 50 µM.

`Cn1cnc2c1c(=O)n(CC1CC(C(C)(O)C(F)(F)F)C1)c(=O)n2C` (single isomer, unassigned) [Embodiment 9 isomer 1]: the IC50 lay in the range of 10 to 50 µM.

As for `Cn1cnc2c1c(=O)n(CCC1CCC(O)(C(F)(F)F)CC1)c(=O)n2C` (single isomer, unassigned) [Embodiment 15 isomer 1], the concentration for half-maximal inhibition (IC50) lay in the range of 1 to 10 µM.

On to `Cn1c(=O)n(CC2CCC(C)(O)CC2)c(=O)c2c1ncn2CC(F)(F)F` (single isomer, unassigned) [Embodiment 46 isomer 2], for which the half-inhibitory concentration (IC50) fell in the range of 10 to 50 µM.

For the compound `Cn1c(=O)n(CC2CCC(O)(C(F)(F)F)CC2)c(=O)c2c1ncn2CC1CC1` (single isomer, unassigned) [Embodiment 50 isomer 1, 7-(Cyclopropylmethyl)-1-((4-hydroxy-4-(trifluoromethyl)cyclohexyl)methyl)-3-methyl-1H-purine-2,6(3H,7H)-dione], the IC50 is 10 to 50 µM.

Regarding `Cn1c(=O)n(CC2CCC(C)(O)CC2)c(=O)c2c1ncn2CC1CC1` (single isomer, unassigned) [Embodiment 51 isomer 1], the IC50 was 10 to 50 µM.

`Cn1cnc2c1c(=O)n(CCCCC1(O)CC1)c(=O)n2C` [Embodiment 3, 1-(4-(1-Hydroxycyclopropyl)butyl)-3,7-dimethyl-1H-purine-2,6(3H,7H)-dione]: the half-maximal inhibitory concentration (IC50) lay within 10 to 50 µM.

For `Cn1cnc2c1c(=O)n(CC1(C(C)(O)C(F)(F)F)CC1)c(=O)n2C` (centres unmarked) [Embodiment 4, 3,7-Dimethyl-1-((1-(1,1,1-trifluoro-2-hydroxypropan-2-yl)cyclopropyl)methyl)-1H-purine-2,6-(3H,7H)-dione], the IC50 was in the range of 1 to 10 µM.

In the case of `Cn1cnc2c1c(=O)n(CC1CC(O)(C(F)(F)F)C1)c(=O)n2C` (centres unmarked) [Embodiment 5], the IC50 lay in the range of 10 to 50 µM.

With `CCC(O)(CC)C1CCC(Cn2c(=O)c3c(ncn3C)n(C)c2=O)CC1` (centres unmarked) [Embodiment 18, 1-((4-(3-Hydroxypentan-3-yl)-cyclohexyl)methyl)-3,7-dimethyl-1H-purine-2,6(3H,7H)-dione], the IC50 was in the range of 1 to 10 µM.

With `Cn1cnc2c1c(=O)n(C[C@H]1CC[C@H](C(C)(O)C(F)(F)F)CC1)c(=O)n2C` (stereo partly drawn) [Embodiment 19, 3,7-Dimethyl-1-[[trans-4-(2,2,2-trifluoro-1-hydroxy-1-methyl-ethyl)cyclohexyl]methyl]purine-2,6-dione], the IC50 lay within 10 to 50 µM.

On to `Cn1cnc2c1c(=O)n(C[C@H]1CC[C@H](C(O)(C(F)(F)F)C(F)(F)F)CC1)c(=O)n2C` [Embodiment 20, 3,7-Dimethyl-1-[trans-4-(2,2,2-trifluoro-1-hydroxy-1-trifluoromethyl-ethyl)cyclohexylmethyl]-3,7-dihydro-purine-2,6-dione], for which the IC50 was in the range of 10 to 50 µM.

Regarding `Cn1cnc2c1c(=O)n(C[C@H]1CC[C@H](C3(O)CC3)CC1)c(=O)n2C` [Embodiment 21, 1-[[trans-4-(1-hydroxycyclopropyl)cyclohexyl]methyl]-3,7-dimethylpurine-2,6-dione], the 50% inhibitory concentration (IC50) fell in the range of 10 to 50 µM.

As for `CCC1(O)CCCC(CCn2c(=O)c3c(ncn3C)n(C)c2=O)C1` (centres unmarked) [Embodiment 22, 1-(2-(3-Ethyl-3-hydroxycyclohexyl)ethyl)-3,7-dimethyl-1H-purine-2,6(3H,7H)-dione], the IC50 is 1 to 10 µM.

For `CCC(O)(CC)c1ccc(Cn2c(=O)c3c(ncn3C)n(C)c2=O)cc1` [Embodiment 25, 1-(4-(3-Hydroxypentan-3-yl)benzyl)-3,7-dimethyl-1H-purine-2,6(3H,7H)-dione], the IC50 lay within 1 to 10 µM.

`Cn1cnc2c1c(=O)n(Cc1cccc(C(C)(O)C(F)(F)F)c1)c(=O)n2C` (centres unmarked) [Embodiment 26, 3,7-dimethyl-1-(3-(1,1,1-trifluoro-2-hydroxypropan-2-yl)benzyl)-1H-purine-2,6-(3H,7H)-dione]: the IC50 was in the range of 10 to 50 µM.

Take `Cn1cnc2c1c(=O)n(Cc1cc(C(O)(C(F)(F)F)C(F)(F)F)no1)c(=O)n2C` [Embodiment 31]: the half-maximal inhibitory concentration (IC50) was in the range of 10 to 50 µM.

Regarding `Cn1cnc2c1c(=O)n(Cc1csc(C(C)(O)C(F)(F)F)n1)c(=O)n2C` (centres unmarked) [Embodiment 33, 3,7-Dimethyl-1-((2-(1,1,1-trifluoro-2-hydroxypropan-2-yl)thiazol-4-yl)methyl)-1H-purine-2,6-(3H,7H)-dione], the IC50 was in the range of 10 to 50 µM.

On to `Cc1sc(C(C)(O)C(F)(F)F)nc1Cn1c(=O)c2c(ncn2C)n(C)c1=O` (centres unmarked) [Embodiment 34], for which the IC50 is 10 to 50 µM.

On to `Cn1cnc2c1c(=O)n(Cc1cnc(C(C)(O)C(F)(F)F)s1)c(=O)n2C` (centres unmarked) [Embodiment 35, 3,7-Dimethyl-1-((2-(1,1,1-trifluoro-2-hydroxypropan-2-yl)thiazol-5-yl)methyl)-1H-purine-2,6-(3H,7H)-dione], for which the half-inhibitory concentration (IC50) fell in the range of 10 to 50 µM.

Turning to `Cc1nc(C(C)(O)C(F)(F)F)sc1CCn1c(=O)c2c(ncn2C)n(C)c1=O` (centres unmarked) [Embodiment 36, 3,7-Dimethyl-1-(2-(4-methyl-2-(1,1,1-trifluoro-2-hydroxypropan-2-yl)thiazol-5-yl)ethyl)-1H-purine-2,6-(3H,7H)-dione], the 50% inhibitory concentration (IC50) was in the range of 10 to 50 µM.

`CCn1cnc2c1c(=O)n(CCCCC(O)(CC)CC)c(=O)n2C` [Embodiment 42, 7-Ethyl-1-(5-ethyl-5-hydroxyheptyl)-3-methyl-1H-purine-2,6(3H,7H)-dione]: the half-inhibitory concentration (IC50) is 1 to 10 µM.

As for `CCn1cnc2c1c(=O)n(CCCCC(C)(O)C(F)(F)F)c(=O)n2C` (centres unmarked) [Embodiment 43, 7-Ethyl-3-methyl-1-(6,6,6-trifluoro-5-hydroxy-5-methylhexyl)-1H-purine-2,6(3H,7H)-dione], the IC50 was 10 to 50 µM.

For `Cn1c(=O)n(CCCCC(C)(O)C(F)(F)F)c(=O)c2c1ncn2C1CC1` (centres unmarked) [Embodiment 47, 7-Cyclopropyl-3-methyl-1-(6,6,6-trifluoro-5-hydroxy-5-methylhexyl)-1H-purine-2,6(3H,7H)-dione], the concentration for half-maximal inhibition (IC50) was in the range of 10 to 50 µM.

For the compound `CC(C)n1cnc2c1c(=O)n(CC1CCC(O)(C(F)(F)F)CC1)c(=O)n2C` (centres unmarked) [Embodiment 48], the half-inhibitory concentration (IC50) was in the range of 10 to 50 µM.

On to `COCC1(Cn2c(=O)c3c(ncn3CC3CC3)n(C)c2=O)CCC(O)(C(F)(F)F)CC1` (centres unmarked) [Embodiment 52], for which the IC50 was in the range of 10 to 50 µM.

`Cn1c(=O)n(CC2(C)CCC(O)(C(F)(F)F)CC2)c(=O)c2c1ncn2CC1CC1` (centres unmarked) [Embodiment 53]: the IC50 was in the range of 10 to 50 µM.

In the case of `Cc1sc(C(C)(O)C(F)(F)F)nc1Cn1c(=O)c2c(ncn2CC2CC2)n(C)c1=O` (centres unmarked) [Embodiment 54, 7-(Cyclopropylmethyl)-3-methyl-1-((5-methyl-2-(1,1,1-trifluoro-2-hydroxypropan-2-yl)thiazol-4-yl)methyl)-1H-purine-2,6-(3H,7H)-dione], the IC50 fell in the range of 1 to 10 µM.

`Cn1c(=O)n(Cc2ccc(C(C)(O)C(F)(F)F)cn2)c(=O)c2c1ncn2CC1CC1` (centres unmarked) [Embodiment 56]: the half-inhibitory concentration (IC50) lay in the range of 10 to 50 µM.

Consider `CC(C)Cn1cnc2c1c(=O)n(CC1CCC(O)(C(F)(F)F)CC1)c(=O)n2C` (centres unmarked) [Embodiment 57, 1-((4-Hydroxy-4-(trifluoromethyl)cyclohexyl)methyl)-7-isobutyl-3-methyl-1H-purine-2,6(3H,7H)-dione], for which the IC50 was in the range of 1 to 10 µM.

Tested on in the next data set: not listed separately
Description: Pharmacokinetic evaluation of compounds in SD rats. The format is in vivo, Sprague Dawley rats. The following applies: male, Sprague-Dawley, rat, plasma, single intravenous injection and oral administration, read-out: Bioavailability F. The method, then:
Experimental objective: The pharmacokinetics of test compounds in SD rats.
Sprague Dawley rats (male, 200-300 g, 7-9 weeks old, Shanghai Slack).
The pharmacokinetic characteristics of rodents after intravenous and oral administration of the compounds were tested according to the standard protocol, in the experiment, the candidate compound was formulated into a clear solution, and the rats were given single intravenous injection and oral administration. Intravenous and oral solvents are a certain proportion of hydroxypropyl βcyclodextrin aqueous solution or physiological saline solution. Blood samples within 24 hours were collected, centrifuged (3000 g) for 15 minutes, the supernatant were separated to obtain the plasma samples, the protein was precipitated by adding a 4 times volume of acetonitrile solution that containing the internal standard, centrifuged and the supernatant was then centrifuged after adding equal volume of water, then the supernatant was injected, the plasma concentration was quantitatively analyzed by LC-MS/MS analysis, and pharmacokinetics parameters such as peak concentration, peak time, clearance rate, half-life, drug area under the curve, bioavailability etc. are calculated.
On to `CC(C)Cn1cnc2c1c(=O)n(CC1CCC(O)(C(F)(F)F)CC1)c(=O)n2C` (single isomer, unassigned) [Embodiment 58 isomer 2, 1-((4-Hydroxy-4-(trifluoromethyl)cyclohexyl)methyl)-7-isobutyl-3-methyl-1H-purine-2,6(3H,7H)-dione], for which the bioavailability turned out to be 42.6%.

Staying with this data set, now noted: male, Sprague-Dawley, rat, plasma, single intravenous injection and oral administration, read-out: Clearance rate.
With `CC(C)Cn1cnc2c1c(=O)n(CC1CCC(O)(C(F)(F)F)CC1)c(=O)n2C` (single isomer, unassigned) [Embodiment 58 isomer 2, 1-((4-Hydroxy-4-(trifluoromethyl)cyclohexyl)methyl)-7-isobutyl-3-methyl-1H-purine-2,6(3H,7H)-dione], the clearance came to 4.3 L/h/kg.

Still in this data set, the particulars now being: male, Sprague-Dawley, rat, plasma, single intravenous injection and oral administration, read-out: Concentration integration AUC.
As to `CC(C)Cn1cnc2c1c(=O)n(CC1CCC(O)(C(F)(F)F)CC1)c(=O)n2C` (single isomer, unassigned) [Embodiment 58 isomer 2, 1-((4-Hydroxy-4-(trifluoromethyl)cyclohexyl)methyl)-7-isobutyl-3-methyl-1H-purine-2,6(3H,7H)-dione], the AUC was 2490 nM·h.

The data set is the same for the next values; noted with them: male, Sprague-Dawley, rat, plasma, single intravenous injection and oral administration, read-out: Half-life T1/2 (converted).
As to `CC(C)Cn1cnc2c1c(=O)n(CC1CCC(O)(C(F)(F)F)CC1)c(=O)n2C` (single isomer, unassigned) [Embodiment 58 isomer 2, 1-((4-Hydroxy-4-(trifluoromethyl)cyclohexyl)methyl)-7-isobutyl-3-methyl-1H-purine-2,6(3H,7H)-dione], the half-life was 33.6 min.
